Experimental data from US10328075B2, “Method of treatment and compounds for use therein” (Baker Heart and Diabetes Institute, priority 2015, dated 2019).
No end group written: not given here.

Test: Body and organ weights of mice after myocardial I-R
Assay type: in vivo, mouse
Details: for Body Weight / Organ weight (mg), LV / Organ weight (mg), RV / Organ weight (mg), atria / Organ weight (mg), heart / Organ weight (mg), lung / Organ weight: body weight (mg/g), LV / Organ weight: body weight (mg/g), RV / Organ weight: body weight (mg/g), atria / Organ weight: body weight (mg/g), heart / Organ weight: body weight (mg/g), lung / Heart weight normalized to body weight versus sham / Effect on total heart weight and LV weight normalized to body weight: mice; for Body Weight (BW, g) / Organ weight: BW (mg/g), LV / Organ weight: BW (mg/g), RV / Organ weight: BW (mg/g), atria / Organ weight: BW (mg/g), heart / Organ weight: BW (mg/g), lung / BW: Table 7; for Heart weight normalized to body weight versus sham: 48 h reperfusion; for Effect on total heart weight and LV weight normalized to body weight: 7 days reperfusion
Method: Sample collection: After the study period (24 h, 48 h or 7 d), infarcted or sham-operated mice were euthanised, blood was collected by cardiac puncture using a 25G needle and 1 mL syringe coated with heparin (500 U/mL). Plasma was collected from mice after 24 h reperfusion to assess levels of cardiac troponin I (cTnI) levels; whole blood was collected from mice after 48 h reperfusion to assess total and differential white blood cell (WBC) numbers in the circulation. Lungs, atria, left and right ventricles were dissected, blotted dry, and weighed. Left ventricles (LV) were cut in half at the occlusion site, with the upper part fixed in Neutral Buffer Formalin (NBF, Thermo Fisher Scientific, Melbourne, Australia) and the apex placed in Tissue-Tek® optimal cutting temperature (OCT) compound (Tissue-Tek, Torrance, USA) for storage at −80° C.
Body and organ weights were measured to examine effects of drug treatments on systemic and cardiac characteristics in mice subjected to myocardial ischaemia-reperfusion injury or sham operation. Although there was no difference between the two vehicles (10% DMSO) in saline i.v. vs. 10% DMSO containing 0.8% Tween 20 in saline, i.p.), data from these two groups were combined for group analysis.
Assessment of cardiac inflammation in vivo: Lungs, atria, left and right ventricles from mice in Cohort 3 (following 60 min ischemia and 48 h reperfusion, optimal timing for detecting cardiac leukocyte infiltration) were dissected, blotted dry, and weighed. LV were cut in half at the occlusion site, and the apical half placed in Tissue-Tek® optimal cutting temperature compound (Tissue-Tek, Torrance, USA) for storage at −80° C. LV tissues were then sectioned at 6 μm for immunofluorescent detection of cardiac macrophage and neutrophil content. Sections were pre-incubated with 4% paraformaldehyde for 20 min and 10% normal goat serum for a further 30 min. Sections were then incubated at RT with either CD68+ primary antibody or Ly-6B.2 primary antibody (1:200, ABD Serotec, Raleigh, USA) for 1 h, followed by 30 min incubation with the Alexa Fluor 546 secondary antibody (1:200, Invitrogen, Carlsbad, USA). Finally, sections were incubated with 0.001% Hoechst 33342 (Invitrogen, Melbourne, Australia) for 30 min, to elicit nuclear staining. Single images were photographed using a Nikon A1R confocal microscope (Nikon Instruments Inc., NY, USA) under 20× magnification, and 9×9 single images were then automatically stitched together using NIS-Elements AR software (version 4.10 for Windows, Nikon Instruments Inc., NY, USA) to form each complete composite LV image. The images for infarct area were captured under 40× magnification, and the stitched images were then analyzed using Fiji software (version 1.48c for Max OS X, National Institutes of Health, USA). The threshold was set for each image, to enable optimal sensing and quantification of red fluorescence intensity above threshold, and the software then automatically quantified these red fluorescent signals.

Compound | Body Weight (Table 5, 48 h myocardial I-R) | Organ weight (mg), LV (Table 5, 48 h myocardial I-R) | Organ weight (mg), RV (Table 5, 48 h myocardial I-R) | Organ weight (mg), atria (Table 5, 48 h myocardial I-R) | Organ weight (mg), heart (Table 5, 48 h myocardial I-R) | Organ weight (mg), lung (Table 5, 48 h myocardial I-R) | Organ weight: body weight (mg/g), LV (Table 5, 48 h myocardial I-R) | Organ weight: body weight (mg/g), RV (Table 5, 48 h myocardial I-R) | Organ weight: body weight (mg/g), atria (Table 5, 48 h myocardial I-R) | Organ weight: body weight (mg/g), heart (Table 5, 48 h myocardial I-R) | Organ weight: body weight (mg/g), lung (Table 5, 48 h myocardial I-R) | Body Weight (Table 6, 7 d myocardial I-R) | Organ weight (mg), LV (Table 6, 7 d myocardial I-R) | Organ weight (mg), RV (Table 6, 7 d myocardial I-R) | Organ weight (mg), atria (Table 6, 7 d myocardial I-R) | Organ weight (mg), heart (Table 6, 7 d myocardial I-R) | Organ weight (mg), lung (Table 6, 7 d myocardial I-R) | Organ weight: body weight (mg/g), LV (Table 6, 7 d myocardial I-R) | Organ weight: body weight (mg/g), RV (Table 6, 7 d myocardial I-R) | Organ weight: body weight (mg/g), atria (Table 6, 7 d myocardial I-R) | other results
COc1cccc(Cc2cc(C)nn(C(C)C(=O)Nc3ccc(Br)cc3)c2=O)c1 (stereo not drawn) [BIDI-001, N-(4-bromophenyl)-2-[5-(3-methoxybenzyl)-3-methyl-6-oxo-6H-pyridazin-1-yl]-propionamide] | 28.2 ± 1.0 g | 105.0 ± 8.3 mg | 24.9 ± 3.1 mg | 14.6 ± 1.2 mg | 147 ± 11 mg | 157 ± 6 mg | 3.7 ± 0.2 mg/g | 1.0 ± 0.0 mg/g | 0.5 ± 0.0 mg/g | 5.2 ± 0.3 mg/g | 5.6 ± 0.2 mg/g | 24.3 ± 0.5 g | 70.1 ± 2.9 mg | 19.0 ± 1.0 mg | 7.3 ± 0.8 mg | 96 ± 4 mg | 132 ± 3 mg | 2.9 ± 0.1 mg/g | 0.8 ± 0.3 mg/g | 0.3 ± 0.0 mg/g | Organ weight: body weight (mg/g), heart (Table 6, 7 d myocardial I-R): 4.0 ± 0.1 mg/g; Organ weight: body weight (mg/g), lung (Table 6, 7 d myocardial I-R): 4.7 ± 0.7 mg/g; Body Weight (BW, g) (48 h myocardial I-R): 28 ± 1 g; Organ weight: BW (mg/g), LV (48 h myocardial I-R): 3.7 ± 0.2 mg/g; Organ weight: BW (mg/g), RV (48 h myocardial I-R): 1.0 ± 0.0 mg/g; Organ weight: BW (mg/g), atria (48 h myocardial I-R): 0.5 ± 0.0 mg/g; Organ weight: BW (mg/g), heart (48 h myocardial I-R): 5.2 ± 0.3 mg/g; Organ weight: BW (mg/g), lung (48 h myocardial I-R): 5.6 ± 0.2 mg/g; BW (7 days myocardial I-R): 24 ± 1 g; Organ weight: BW (mg/g), LV (7 days myocardial I-R): 2.9 ± 0.1 mg/g; Organ weight: BW (mg/g), RV (7 days myocardial I-R): 0.8 ± 0.3 mg/g; Organ weight: BW (mg/g), atria (7 days myocardial I-R): 0.3 ± 0.0 mg/g; Organ weight: BW (mg/g), heart (7 days myocardial I-R): 4.0 ± 0.1 mg/g; Organ weight: BW (mg/g), lung (7 days myocardial I-R): 5.4 ± 0.1 mg/g; Heart weight normalized to body weight versus sham: significantly increased; Effect on total heart weight and LV weight normalized to body weight: significantly reduced
CC(C)C1C(NC(=O)Nc2ccc(Cl)cc2)C(=O)N(c2ccccc2)N1C (stereo not drawn) [BIDI-002] | 27 ± 0.6 g | 94.9 ± 7.5 mg | 22.9 ± 1.7 mg | 9.9 ± 2.8 mg | 132 ± 11 mg | 154 ± 6 mg | 3.5 ± 0.2 mg/g | 0.8 ± 0.0 mg/g | 0.5 ± 0.1 mg/g | 4.8 ± 0.3 mg/g | 5.7 ± 0.1 mg/g | 23.8 ± 0.9 g | 89.0 ± 4.2 mg | 21.4 ± 1.6 mg | 7.8 ± 0.5 mg | 118 ± 6 mg | 138 ± 7 mg | 3.7 ± 0.1 mg/g | 0.9 ± 0.1 mg/g | 0.3 ± 0.0 mg/g | Organ weight: body weight (mg/g), heart (Table 6, 7 d myocardial I-R): 5.0 ± 0.2 mg/g; Organ weight: body weight (mg/g), lung (Table 6, 7 d myocardial I-R): 5.8 ± 0.3 mg/g; Body Weight (BW, g) (48 h myocardial I-R): 27 ± 1 g; Organ weight: BW (mg/g), LV (48 h myocardial I-R): 3.5 ± 0.2 mg/g; Organ weight: BW (mg/g), RV (48 h myocardial I-R): 0.8 ± 0.0 mg/g; Organ weight: BW (mg/g), atria (48 h myocardial I-R): 0.5 ± 0.1 mg/g; Organ weight: BW (mg/g), heart (48 h myocardial I-R): 4.8 ± 0.3 mg/g; Organ weight: BW (mg/g), lung (48 h myocardial I-R): 5.7 ± 0.1 mg/g; BW (7 days myocardial I-R): 24 ± 1 g; Organ weight: BW (mg/g), LV (7 days myocardial I-R): 3.7 ± 0.1 mg/g; Organ weight: BW (mg/g), RV (7 days myocardial I-R): 0.9 ± 0.1 mg/g; Organ weight: BW (mg/g), atria (7 days myocardial I-R): 0.3 ± 0.0 mg/g; Organ weight: BW (mg/g), heart (7 days myocardial I-R): 5.0 ± 0.2 mg/g; Organ weight: BW (mg/g), lung (7 days myocardial I-R): 5.8 ± 0.3 mg/g; Effect on total heart weight and LV weight normalized to body weight: not; Effect on total heart weight and LV weight normalized to body weight (listed as Cmpd43): not shared
Ac2-26: Annexin-A1 N-terminal peptide, peptide ANX-A1 mimetic (Ac-AMVSEFLKQAWFIENEEQEYVQTVK; UniProt P04083 2-26, looked up, fragment) | 28.2 ± 1.0 g | 109.8 ± 5.5 mg | 24.3 ± 0.9 mg | 10.1 ± 0.7 mg | 144 ± 6 mg | 145 ± 9 mg | 3.8 ± 0.2 mg/g | 0.8 ± 0.0 mg/g | 0.3 ± 0.0 mg/g | 5.0 ± 0.2 mg/g | 5.0 ± 0.3 mg/g | 25.6 ± 1.0 g | 102.9 ± 6.5 mg | 17.8 ± 2.4 mg | 8.3 ± 1.0 mg | 129 ± 10 mg | 147 ± 7 mg | 4.0 ± 0.2 mg/g | 0.7 ± 0.1 mg/g | 0.3 ± 0.0 mg/g | Organ weight: body weight (mg/g), heart (Table 6, 7 d myocardial I-R): 5.0 ± 0.2 mg/g; Organ weight: body weight (mg/g), lung (Table 6, 7 d myocardial I-R): 5.7 ± 0.2 mg/g; Heart weight normalized to body weight versus sham: significantly increased; Effect on total heart weight and LV weight normalized to body weight: not
